ChEMBL document CHEMBL3045724, “Synthesis, biopharmaceutical characterization, and antimicrobial study of novel azo dyes of 7-hydroxy-4-methylcoumarin” (2013)

How the values were obtained:
Format in all cases: functional
Aspergillus niger = test: Antimicrobial activity against Aspergillus niger assessed as diameter of growth inhibition zone
Escherichia coli = test: Antimicrobial activity against Escherichia coli assessed as diameter of growth inhibition zone after 48 hr by agar cup plate method
Salmonella typhi = test: Antimicrobial activity against Salmonella enterica subsp. enterica serovar Typhi assessed as diameter of growth inhibition zone after 48 hr by agar cup plate method
Staphylococcus aureus = test: Antimicrobial activity against Staphylococcus aureus assessed as diameter of growth inhibition zone after 48 hr by agar cup plate method
Bacillus subtilis = test: Antimicrobial activity against Bacillus subtilis assessed as diameter of growth inhibition zone after 48 hr by agar cup plate method

Question: With `CN[C@@H]1[C@H](O[C@H]2[C@H](O[C@H]3[C@H](O)[C@@H](O)[C@H](N=C(N)N)[C@@H](O)[C@@H]3N=C(N)N)O[C@@H](C)[C@]2(O)C=O)O[C@@H](CO)[C@H](O)[C@H]1O` [STREPTOMYCIN] as the molecule, how does the “inhibition zone (IZ)” value (Aspergillus niger) read?
Answer: >15 mm

Question: And the “inhibition zone (IZ)” value (Escherichia coli)?
Answer: 10 mm

Question: What about the “inhibition zone (IZ)” value (Salmonella typhi) of the same molecule?
Answer: >15 mm

Question: What about the “inhibition zone (IZ)” value (Staphylococcus aureus) of the same molecule?
Answer: >15 mm

Question: What about the “inhibition zone (IZ)” value (Bacillus subtilis) of the same molecule?
Answer: >15 mm

Question: `Cc1c/c(=N/CC/N=c2/cc(C)c3ccc(O)c(/N=N/C4=NCCS4)c3o2)oc2c(/N=N/C3=NCCS3)c(O)ccc12` was tested. Which “inhibition zone (IZ)” value (Aspergillus niger) did it give?
Answer: >15 mm

Question: What about the “inhibition zone (IZ)” value (Escherichia coli) of the same molecule?
Answer: >15 mm

Question: And the “inhibition zone (IZ)” value (Salmonella typhi)?
Answer: >15 mm

Question: What about the “inhibition zone (IZ)” value (Staphylococcus aureus) of the same molecule?
Answer: >15 mm

Question: What about the “inhibition zone (IZ)” value (Bacillus subtilis) of the same molecule?
Answer: 10 mm

Question: How did the “inhibition zone (IZ)” value (Aspergillus niger) turn out when `Cc1c/c(=N/CC/N=c2/cc(C)c3ccc(O)c(/N=N/c4c(C)n(C)n(-c5ccccc5)c4=O)c3o2)oc2c(/N=N/c3c(C)n(C)n(-c4ccccc4)c3=O)c(O)ccc12` was run?
Answer: >15 mm

Question: What about the “inhibition zone (IZ)” value (Escherichia coli) of the same molecule?
Answer: 10 mm

Question: And the “inhibition zone (IZ)” value (Staphylococcus aureus)?
Answer: 10 mm

Question: And the “inhibition zone (IZ)” value (Bacillus subtilis)?
Answer: >15 mm

Question: `Cc1c/c(=N/CC/N=c2/cc(C)c3ccc(O)c(/N=N/c4cccnc4)c3o2)oc2c(/N=N/c3cccnc3)c(O)ccc12` was tested. Which “inhibition zone (IZ)” value (Aspergillus niger) did it give?
Answer: <5 mm

Question: And the “inhibition zone (IZ)” value (Escherichia coli)?
Answer: 10 mm

Question: And the “inhibition zone (IZ)” value (Salmonella typhi)?
Answer: >15 mm

Question: And the “inhibition zone (IZ)” value (Staphylococcus aureus)?
Answer: >15 mm

Question: What about the “inhibition zone (IZ)” value (Bacillus subtilis) of the same molecule?
Answer: >15 mm

Question: How did the “inhibition zone (IZ)” value (Aspergillus niger) turn out when `Cc1c/c(=N/CC/N=c2/cc(C)c3ccc(O)c(/N=N/c4ccccn4)c3o2)oc2c(/N=N/c3ccccn3)c(O)ccc12` was run?
Answer: >15 mm

Question: And the “inhibition zone (IZ)” value (Escherichia coli)?
Answer: >15 mm

Question: What about the “inhibition zone (IZ)” value (Salmonella typhi) of the same molecule?
Answer: >15 mm

Question: And the “inhibition zone (IZ)” value (Staphylococcus aureus)?
Answer: >15 mm

Question: What about the “inhibition zone (IZ)” value (Bacillus subtilis) of the same molecule?
Answer: >15 mm

Question: For `Cc1c/c(=N/CC/N=c2/cc(C)c3ccc(O)c(/N=N/c4cccc5ccccc45)c3o2)oc2c(/N=N/c3cccc4ccccc34)c(O)ccc12`, which “inhibition zone (IZ)” value (Aspergillus niger) is on record?
Answer: >15 mm

Question: What about the “inhibition zone (IZ)” value (Escherichia coli) of the same molecule?
Answer: >15 mm

Question: And the “inhibition zone (IZ)” value (Salmonella typhi)?
Answer: >15 mm

Question: What about the “inhibition zone (IZ)” value (Staphylococcus aureus) of the same molecule?
Answer: >15 mm

Question: And the “inhibition zone (IZ)” value (Bacillus subtilis)?
Answer: >15 mm

Question: With `Cc1c/c(=N/CC/N=c2/cc(C)c3ccc(O)c(/N=N/c4ccncc4)c3o2)oc2c(/N=N/c3ccncc3)c(O)ccc12` as the molecule, how does the “inhibition zone (IZ)” value (Aspergillus niger) read?
Answer: >15 mm

Question: And the “inhibition zone (IZ)” value (Escherichia coli)?
Answer: >15 mm

Question: What about the “inhibition zone (IZ)” value (Salmonella typhi) of the same molecule?
Answer: 10 mm

Question: And the “inhibition zone (IZ)” value (Staphylococcus aureus)?
Answer: >15 mm

Question: What about the “inhibition zone (IZ)” value (Bacillus subtilis) of the same molecule?
Answer: 10 mm

Question: Which results are given for `CC1(C)S[C@@H]2[C@H](NC(=O)[C@H](N)c3ccccc3)C(=O)N2[C@H]1C(=O)O` [AMPICILLIN]?
Answer: inhibition zone (IZ) (Aspergillus niger): 10 mm; inhibition zone (IZ) (Escherichia coli): >15 mm; inhibition zone (IZ) (Salmonella typhi): >15 mm; inhibition zone (IZ) (Staphylococcus aureus): 10 mm; inhibition zone (IZ) (Bacillus subtilis): >15 mm
